Assay: gradient 5% acetonitrile 3 min, to 50% in 2 min, to 85% in 15 min, held 3 min, 100 µL/min
Conditions: column: Zorbax Extend-C18 2.1 x 50 mm; eluents: water / acetonitrile, 0.1% formic acid
In short: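 A Zorbax Extend-C18 column (2.1 × 50 mm, 1.8 μm) run at 100 μL/min with water and acetonitrile, both containing 0.1% formic acid, separated mixtures of ~100 pure standards. The HPLC was coupled to a quadrupole time-of-flight mass spectrometer operated in positive and negative ionization mode, with dead and dwell volumes of 40 μL and 900 μL. Each retention time was taken from a computationally picked adduct peak that was then manually inspected.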

Compound | RP-LC retention time [s]
CC(=O)N1CCc2cc(S(=O)(=O)C(C)CC(=O)N3CCN(c4ccc(Cl)cc4)CC3)ccc21 (centres undefined) | 870
Cc1nc(Cn2cccc2C(=O)N2CCN(c3cccc(Cl)c3)CC2)no1 | 974
Cc1cc(=O)n(CC(=O)NCc2ccccc2)c(N(C)Cc2ccccc2)n1 | 684
CCc1sc(NC(=O)Cc2csc(C)n2)nc1-c1ccc(Br)cc1 | 1080
COc1cc(OC)cc(-c2nc(C3CC(=O)N(c4ccc(Cl)cc4)C3)no2)c1 (centres undefined) | 1290
O=C(NC1CCCc2c1[nH]c1ccc(Cl)cc21)c1ccncc1 (centres undefined) | 859
Cc1ccc(C(=O)OCC(=O)c2ccc([N+](=O)[O-])cc2)o1 | 688
CCN(CC)CCNC(=O)CSCc1ccc(C)cc1 | 631
COc1ccc(CNC(=O)C2(C)CCCN(S(=O)(=O)c3ccc(Br)cc3)C2)cc1 (centres undefined) | 1020
O=C(Cn1c(=O)c(S(=O)(=O)c2ccccc2)cc2ccccc21)NCc1ccccc1Cl | 895
CCCC(CCC)C(=O)NCCc1c[nH]c2ccc(C)cc12 | 996
O=C(C1CC(=O)N(C2CCCC2)C1)N1CCC(c2c[nH]c3ccccc23)(c2c[nH]c3ccccc23)CC1 (centres undefined) | 850
CC(NC(=O)Cc1cn(C)c2ncccc12)c1ccccc1 (centres undefined) | 679
COc1ccccc1NS(=O)(=O)c1cc2n(c1)CCN(CC(C)C)C2=O | 798
O=C(NCc1cccs1)c1cccnc1N1CCNC(c2ccccc2)C1 (centres undefined) | 612
Cc1ccsc1C(=O)Nc1ccc(N2CCN(Cc3ccccc3)C2=O)nc1 | 834
COc1ccc(C(=O)N2CCN(c3nc(CN4CCOCC4)cs3)CC2)cn1 | 580
Cc1ccccc1-c1noc(Cc2nnc(-c3cccc(Cl)c3)o2)n1 | 1140
Cc1cc2nn(CC(=O)Nc3ccc(C)c(C)c3)c(=O)n2c(N2CCCC2)n1 | 1010
COc1ccccc1CCC(=O)Nc1ccc2c(c1)Sc1ncccc1C(=O)N2C(C)C | 922
CCN1C(=O)c2cccnc2Sc2cc(NC(=O)Cc3ccccc3C)ccc21 | 898
Cc1c(Cl)cccc1NC(=O)Cn1c(C)nc2onc(C)c2c1=O | 817
CCOC(=O)N1CCC2(CC1)N=C(c1ccc(F)cc1)CC(c1cccc(OC)c1O)N2 (centres undefined) | 748
CCCNC(=O)CN1CCN(C(=O)c2sc3ncccc3c2-n2cccc2)CC1 | 620
COc1ccccc1C(=O)NC1(C(F)(F)F)C(=O)N(CC(C)C)C2=C1C(=O)CC(C)(C)C2 (centres undefined) | 1070

Compound | RP-LC retention time [s]
CCN(CC)CCNc1ncnc2onc(-c3cc(F)cc(F)c3)c12 | 651
CCn1ncn2cc(S(=O)(=O)Nc3ccc(C)c(C)c3)cc2c1=O | 930
CCc1cc(C2CCCN2Cc2ccc(OCC(N)=O)c(OC)c2)on1 (centres undefined) | 570
COC(=O)c1ccccc1S(=O)(=O)N1CCc2c(c(-c3nnc(-c4ccc(F)cc4)o3)nn2C)C1 | 915
Cc1ccc(CNC(=O)CCc2c(-c3ccc(Br)cc3)nc3ccccn23)cc1 | 709
Cc1cc2c(cc(C(=O)NCCc3ccccc3)n2C)s1 | 1040
Cc1cc(N2CCC(NC(=O)Nc3ccccc3Cl)C2=O)ccc1F (centres undefined) | 878
COc1ccc(OC)c(NC(=O)N2CCC(n3cnc4cccnc43)CC2)c1 | 649
Cc1ccc(-c2nc3ncccn3c2Nc2ccc3c(c2)OCCO3)cc1 | 684
COc1ccc(NC(=O)Cn2c(C(C)C)nc3c(c2=O)CCN(Cc2ccccc2)C3)cc1OC | 659
CCn1c(=O)sc2cc(S(=O)(=O)N3CCC(C(=O)NCC(C)c4ccccc4)CC3)ccc21 (centres undefined) | 929
CC(C)(C)C1CCC(OCC(O)CN2CCN(CCO)CC2)CC1 (centres undefined) | 581
CCOC(=O)c1c(N2C(=O)C3C4C=CC(O4)C3C2=O)sc2c1CCCC2 (centres undefined) | 872
CCn1c(CCNC(=O)c2ccc(Cl)cc2)nc2cccnc21 | 653
CN1C(=O)c2cc(C(=O)Nc3cccc(F)c3)nn2CC1(C)C(=O)NC1CCCCCC1 (centres undefined) | 791
COc1cc(NS(=O)(=O)c2ccc3c(c2)-c2oncc2CO3)cc(OC)c1OC | 805
Cc1ccc(-c2nnc(-c3cccc(S(=O)(=O)NC(C)C(=O)O)c3)o2)cc1 (centres undefined) | 784
CC(C)c1cc(C(=O)Nc2cccc(Cl)c2)nn1C1CCS(=O)(=O)C1 (centres undefined) | 994
COc1ccc(-c2cc(C(=O)Nc3ccccc3)nn2C2CCS(=O)(=O)C2)cc1 (centres undefined) | 911
O=S(=O)(Cc1ccccc1Cl)N(Cc1ccsc1)C1CC1 | 1000
O=C(Nc1cc(-c2ccccn2)no1)c1nccc2ccccc12 | 956
Cc1[nH]c2ccccc2c1C(=O)C(=O)N1CC2CC(C1)c1cccc(=O)n1C2 (centres undefined) | 612
CN1C(=O)c2cccnc2Sc2cc(NC(=O)c3ccccc3F)ccc21 | 758
Cc1ccc(Nc2c(-c3ccccc3)nc3ccc(C)cn23)cc1 | 750
O=C(Nc1ccc2c(c1)OCO2)C1CCCN(c2ccnc(-c3ccc(F)cc3)n2)C1 (centres undefined) | 674

The remaining lines, values ahead:

RP-LC retention time [s] | Compound
566 | O=C(Cc1ccc(Cl)cc1)NCC1CCN(C2CCCC2)CC1
770 | CC1=C(c2ccccc2)S(=O)(=O)N=C1N1CCCN(C(=O)c2cccs2)CC1
858 | CCN1CCn2cc(S(=O)(=O)N3CCN(c4cccc(C)c4)CC3)cc2C1=O
767 | CN(C)C(=O)N1CCC(c2nc(CCOc3ccc(F)cc3)no2)C1 (centres undefined)
734 | COC(=O)CNC(=O)N1CCCC1c1cccc(C)c1 (centres undefined)
1050 | Cc1c(-c2noc(-c3ccccc3F)n2)nnn1Cc1cccc(F)c1
891 | O=C(Nc1ccc2c(c1)OCCO2)N1CCC(OCCOc2ccccc2)CC1
896 | CCOc1ccc(-c2cn3ccn(-c4ccc(OCC)cc4)c(=O)c3n2)cc1
699 | O=C(CN1CCc2[nH]c3c(F)c(Cl)ccc3c(=O)c2C1)Nc1cc(F)cc(F)c1
717 | Cc1ccc(Cn2c(CN3CCC(C(=O)N4CCOCC4)CC3)cc3ccccc32)cc1
936 | Cc1nc(Cn2cccc2C(=O)Nc2cccc(Br)c2)no1
824 | CC(C)NC(=O)Cn1cccc(-c2nc(-c3ccc(Br)cc3)no2)c1=O
580 | CC(CCNC(=O)C1CCN(c2nc3cccnc3s2)CC1)N1CCCC1 (centres undefined)
811 | CC(C)c1ccc(CNC(=O)Cc2nnc(-c3ccc4ncccc4c3)o2)cc1
608 | CCCCN(C)C(=O)c1cn2cc(C)ccc2n1
851 | O=S(=O)(c1ccccc1)N1CCCCC1c1nc(-c2ccccc2)n[nH]1 (centres undefined)
735 | c1ccc(-c2ccc(CNCCc3c[nH]c4ccccc34)o2)cc1
731 | COC(=O)CNC(=O)C1CN(C(=O)c2ccccc2)CC12CCCCC2 (centres undefined)
896 | O=C(NC1CC1)c1ccc2c(c1)CCCN2S(=O)(=O)c1ccc(Cl)cc1
583 | Cc1cc(CN2CCC(CNC(=O)CSc3ccc(F)cc3)CC2)c(C)o1

RP-LC retention time [s] | Compound
582 | Cc1ccc2c(Nc3ccc(S(N)(=O)=O)cc3)c(C(=O)N3CCC(C)CC3)cnc2n1
823 | CC(C)n1c(N2CCN(C(=O)c3ccc4c(c3)OCO4)CC2)cc(=O)n(C(C)C)c1=O
775 | O=C(c1cccc(Br)c1)N1CCC(n2c(-c3ccoc3)nc3cccnc32)C1 (centres undefined)
861 | CCC(=O)N1CCN(c2ccc(-n3c(=O)ccc4cnc5ccc(-c6cnc7ccccc7c6)cc5c43)cc2C(F)(F)F)CC1
786 | CCn1cc(S(=O)(=O)Nc2ccc(OC)cc2)c2cccnc21
641 | CCn1c(=O)c(SCC(=O)NCCN(C)Cc2ccccc2)nc2ccccc21
713 | O=C(CCc1ccccc1)Nc1ccc2[nH]c(=O)oc2c1
714 | CN(Cc1nc2ccccc2n1Cc1ccc(F)cc1)C(=O)c1ccco1
642 | Cc1ccc(C(CC(=O)NCCN2CCOCC2)N2Cc3ccccc3C2=O)cc1 (centres undefined)
1320 | CCCN1C(=O)COc2ccc(-c3noc(-c4ccc(OC)cc4C)n3)cc21
781 | Cc1csc(-c2ccc(CNC(=O)c3ccoc3)cc2)n1
1300 | CCOc1cc(-c2nc(C3CC(=O)N(c4ccc(CC)cc4)C3)no2)cc(OCC)c1OCC (centres undefined)
574 | COC[C@@H]1CN(C(=O)c2ccoc2C)C[C@H]1c1nc(C2CC2)no1
886 | C=Cc1ccc(CN2C(=O)N(c3ccc(F)cc3)c3ncccc3S2(=O)=O)cc1
1030 | CCCN1C(=O)c2cc(S(=O)(=O)NCc3ccccc3F)ccc2Oc2cccnc21
556 | CC(C)NC(=O)C1CCN(C(=O)c2cc(-c3ccncc3)n[nH]2)CC1
936 | CCCCn1cc(S(=O)(=O)Nc2ccc(F)cc2)c2cccnc21
685 | O=C(CN1CCC2(CC1)N=C(c1ccccc1)C(=O)N2)Nc1ccc(Br)cc1F
705 | COC(=O)c1cnc2nc(C)ccc2c1Nc1ccc(Br)cc1

— the METLIN SMRT retention time set (Domingo-Almenara et al. 2019)
